Test results as given in patent publication US20230321055A1, “PREVENTIVE TREATMENT OF MIGRAINE” (priority 2022, published 2023).

Test system: participants with chronic migraine
Experiment: Phase 3 randomized, double-blind, placebo-controlled study of atogepant for prevention of chronic migraine: eDiary efficacy (migraine, headache and acute medication use days, responder rates)
Type: in vivo, human
Settings: for MMDs, LS mean difference vs. placebo / participants with ≥50% reduction in 3-month average of MMDs / ≥50% reduction in 3-month average of MMDs, OR vs placebo: Europe subpopulation; for LSM change from baseline in mean monthly acute medication use days / mean monthly acute medication use days, LSM difference vs placebo: acute medication over-users; for participants with ≥50% reduction in mean MMDs across the 12-week treatment period: acute medication overuse participants; for LSM change from baseline in mean MMDs across 12 weeks: participants with acute medication overuse at baseline; for mean change from baseline in MMDs: weeks 1-4 of treatment
Protocol: A phase 3, multicenter, randomized, double-blind, placebo-controlled, parallel-group study was carried out to evaluate the efficacy, safety, and tolerability of atogepant for the prevention of chronic migraine. A total of 778 participants from 133 sites in North America, Europe, and East Asia were randomized to one of three treatment arms (placebo, Atogepant 30 mg BID, and Atogepant 60 mg QD) in a 1:1:1 ratio.
This study comprised a 4-week screening and baseline period, a 12-week double blind treatment period, and a follow-up period of 4 additional weeks. The total study duration was 20 weeks. Participant disposition information and other relevant participant screening information may also be found in FIG. 19.
The primary end point was the change from baseline in the mean number of migraine days per month across the 12 week treatment period.
Secondary endpoints included change from baseline in mean monthly headache days across the 12 week treatment period; change from baseline in mean monthly acute medication use days across the 12-week treatment period; at least a 50% reduction in mean monthly migraine days across the 12-week treatment period; change from baseline in MSQ v2.1 Role Function-Restrictive domain score at week 12; change from baseline in mean AIM-D monthly functioning and activity impairment score across the 12-week treatment period; and change from baseline in HIT-6 total score at week 12.
Inclusion criteria included at least a 1-year history of chronic migraine consistent with diagnosis according to the International Classification of Headache Disorders, 3rd Edition (ICHD-3) and age of the participant at the time of migraine onset <50 years. Inclusion criteria further included confirmation of headache / migraine headache day frequency as follows: history of, on average, ≥15 headache days per month in the 3 months prior to Visit 1 in the opinion of the investigator AND >=15 headache days during the 4-week screening/baseline period per the electronic diary (eDiary) AND >=8 days during the 4-week screening/baseline period that qualify as being a migraine day per the eDiary. Participants were also required to be using a medically acceptable and effective method of birth control during the course of the entire study.
Exclusion criteria included a history of migraine, accompanied by diplopia or decreased level of consciousness, or retinal migraine; a current diagnosis of new persistent daily headache, trigeminal autonomic cephalgia (e.g., cluster headache), or painful cranial neuropathy; history of an inadequate response to >4 medications (2 of which have different mechanisms of action) prescribed for the prevention of migraine; and woman who is pregnant, planning to become pregnant during the course of the study, or currently lactating.
• All Screened Participants includes those screened participants who signed informed consent form. • The Intent-to-Treat Population includes all randomized participants. […] Treatment groups assigned as randomized.
A Subset of patients (11%) was allowed to use one concomitant migraine preventive medication (e.g., amitriptyline, propranolol, topiramate). Patients were allowed to use acute headache treatments (i.e., triptans, ergotamine derivatives, NSAIDs, acetaminophen, and opioids) as needed. Patients with acute medication overuse and medication overuse headache were also enrolled. The use of a concomitant medication that acts on the CGRP pathway was not permitted for either acute or preventive treatment of migraine. The study excluded patients with myocardial infarction, stroke, or transient ischemic attacks within six months prior to screening.
Outcomes for this analysis included change from baseline in mean MMDs during 4-week intervals, change in weekly migraine days during weeks 1-4, and the proportion of participants with a migraine on each day during the first 7 days of treatment. […] Baseline MMDs ranged from 18.6 to 19.2 across treatment groups. […]

[1] = 30 mg BID, Off-Treatment Hypothetical Estimand population
[2] = 30 mg BID, mITT, listed as atogepant
[3] = 60 mg QD, Off-Treatment Hypothetical Estimand population
[4] = 60 mg QD, mITT, listed as atogepant
[5] = range over 30 mg twice daily and 60 mg once daily

C[C@@H]1[C@H](c2c(F)ccc(F)c2F)C[C@H](NC(=O)c2cnc3c(c2)C[C@@]2(C3)C(=O)Nc3ncccc32)C(=O)N1CC(F)(F)F [Atogepant, (S)—N—((3S,5S,6R)-6-methyl-2-oxo-1-(2,2,2-trifluoroethyl)-5-(2,3,6-trifluorophenyl)piperidin-3-yl)-2′-oxo-1′,2′,5,7-tetrahydrospiro[cyclopenta[b]pyridine-6,3′-pyrrolo[2,3-b]pyridine]-3-carboxamide]
MMDs, LS mean difference vs. placebo (30 mg BID): −3.02
participants with ≥50% reduction in 3-month average of MMDs (30 mg BID): 48.4%
≥50% reduction in 3-month average of MMDs, OR vs placebo (30 mg BID): 1.87
LS mean change in MMDs (30 mg BID, Europe subpopulation of OTHE population (n=91)): −8.44
decrease of monthly migraine days across the 12 weeks (30 mg BID, OTHE population): 7.33 days
>=50% reduction in 3-month average of monthly migraine days, Odds ratio Atogepant vs. Placebo [1]: 2.03
Change from baseline in mean monthly acute medication use days across the 12-week treatment period, LS Mean [1]: -6.61 days
Change from baseline in mean monthly acute medication use days across the 12-week treatment period, LSMD Atogepant vs. Placebo [1]: -2.52 days
Change from baseline in mean monthly headache days across the 12-week treatment period, LS Mean [1]: -7.32 days
Change from baseline in mean monthly headache days across the 12-week treatment period, LSMD Atogepant vs. Placebo [1]: -2.14 days
Change from baseline in mean monthly migraine days across the 12-week treatment period, LS Mean [1]: -7.33 days
Change from baseline in mean monthly migraine days across the 12-week treatment period, LSMD Atogepant vs. Placebo [1]: -2.24 days
>=50% reduction in 3-month average of monthly migraine days, Responders (30 mg BID, Off-Treatment Hypothetical Estimand population (N = 254)): 107 (42.1) n (%)
LSM change from baseline in mean monthly acute medication use days (30 mg BID): −8.4
mean monthly acute medication use days, LSM difference vs placebo (30 mg BID): −2.8
participants with ≥50% reduction in mean MMDs across the 12-week treatment period (30 mg BID): 44.7%
>=50% reduction in 3-month average of monthly migraine days, Odds ratio Atogepant vs. Placebo (30 mg BID, mITT): 2.13
Change from baseline in mean monthly acute medication use days across the 12-week treatment period, LS Mean (30 mg BID, mITT): -6.73 days
Change from baseline in mean monthly acute medication use days across the 12-week treatment period, LSMD Atogepant vs. Placebo (30 mg BID, mITT): -2.63 days
Change from baseline in mean monthly headache days across the 12-week treatment period, LS Mean (30 mg BID, mITT): -7.44 days
Change from baseline in mean monthly headache days across the 12-week treatment period, LSMD Atogepant vs. Placebo (30 mg BID, mITT): -2.32 days
Change from baseline in mean monthly migraine days across the 12-week treatment period, LS Mean (30 mg BID, mITT): -7.46 days
Change from baseline in mean monthly migraine days across the 12-week treatment period, LSMD Atogepant vs. Placebo (30 mg BID, mITT): -2.41 days
decrease of monthly migraine days across the 12 weeks (30 mg BID, mITT): 7.46 days
participants with ≥30% reduction in mean MMDs across 12 weeks (30 mg BID, mITT): 62.1%
participants with ≥50% reduction in mean MMDs across 12 weeks (30 mg BID, mITT): 42.7%
participants with ≥75% reduction in mean MMDs across 12 weeks (30 mg BID, mITT): 21.3%
Change from baseline in mean monthly migraine days across the 12-week treatment period, LS Mean [2]: -7.5 days
Change from baseline in mean monthly migraine days across the 12-week treatment period, LSMD Atogepant vs. Placebo [2]: -2.4 days
LSM change from baseline in mean MMDs across 12 weeks (30 mg BID): −8.3
mean change from baseline in MMDs (30 mg BID): -6.6 days
participants with <30% reduction in mean MMDs in month 1 who experienced ≥30% reduction in either month 2 or 3 (30 mg twice daily): 50/96
participants with <30% reduction in mean MMDs in month 1 who experienced ≥30% reduction in month 2 (30 mg twice daily): 36/99
participants with <50% reduction in mean MMDs in month 1 who experienced ≥50% reduction in either month 2 or 3 (30 mg twice daily): 52/132
participants with <50% reduction in mean MMDs in month 1 who experienced ≥50% reduction in month 2 (30 mg twice daily): 32/136
participants without ≥30% reduction in mean MMDs in months 1 or 2 who experienced a ≥30% response by the end of the trial (30 mg twice daily): 23.3%
participants without ≥50% reduction in mean MMDs in months 1 or 2 who experienced a ≥50% response by the end of the trial (30 mg twice daily): 20.0%
sustained response among participants with ≥75% response in month 1 (30 mg twice daily, mITT): 46.9%
sustained response of ≥30% in months 2 and 3 among participants with ≥30% response in month 1 (30 mg twice daily, mITT): 81.8%
sustained response of ≥50% in months 2 and 3 among participants with ≥50% response in month 1 (30 mg twice daily, mITT): 71.6%
MMDs, LS mean difference vs. placebo (60 mg QD): −2.59
participants with ≥50% reduction in 3-month average of MMDs (60 mg QD): 46.7%
≥50% reduction in 3-month average of MMDs, OR vs placebo (60 mg QD): 1.84
LS mean change in MMDs (60 mg QD, Europe subpopulation of OTHE population (n=90)): −8.00
decrease of monthly migraine days across the 12 weeks (60 mg QD, OTHE population): 6.75 days
>=50% reduction in 3-month average of monthly migraine days, Odds ratio Atogepant vs. Placebo [3]: 1.90
Change from baseline in mean monthly acute medication use days across the 12-week treatment period, LS Mean [3]: -6.19 days
Change from baseline in mean monthly acute medication use days across the 12-week treatment period, LSMD Atogepant vs. Placebo [3]: -2.09 days
Change from baseline in mean monthly headache days across the 12-week treatment period, LS Mean [3]: -6.90 days
Change from baseline in mean monthly headache days across the 12-week treatment period, LSMD Atogepant vs. Placebo [3]: -1.72 days
Change from baseline in mean monthly migraine days across the 12-week treatment period, LS Mean [3]: -6.75 days
Change from baseline in mean monthly migraine days across the 12-week treatment period, LSMD Atogepant vs. Placebo [3]: -1.66 days
>=50% reduction in 3-month average of monthly migraine days, Responders (60 mg QD, Off-Treatment Hypothetical Estimand population (N = 257)): 103 (40.1) n (%)
LSM change from baseline in mean monthly acute medication use days (60 mg QD): −8.1
mean monthly acute medication use days, LSM difference vs placebo (60 mg QD): −2.6
participants with ≥50% reduction in mean MMDs across the 12-week treatment period (60 mg QD): 41.8%
>=50% reduction in 3-month average of monthly migraine days, Odds ratio Atogepant vs. Placebo (60 mg QD, mITT): 2.04
Change from baseline in mean monthly acute medication use days across the 12-week treatment period, LS Mean (60 mg QD, mITT): -6.23 days
Change from baseline in mean monthly acute medication use days across the 12-week treatment period, LSMD Atogepant vs. Placebo (60 mg QD, mITT): -2.13 days
Change from baseline in mean monthly headache days across the 12-week treatment period, LS Mean (60 mg QD, mITT): -7.00 days
Change from baseline in mean monthly headache days across the 12-week treatment period, LSMD Atogepant vs. Placebo (60 mg QD, mITT): -1.87 days
Change from baseline in mean monthly migraine days across the 12-week treatment period, LS Mean (60 mg QD, mITT): -6.88 days
Change from baseline in mean monthly migraine days across the 12-week treatment period, LSMD Atogepant vs. Placebo (60 mg QD, mITT): -1.82 days
decrease of monthly migraine days across the 12 weeks (60 mg QD, mITT): 6.88 days
participants with ≥30% reduction in mean MMDs across 12 weeks (60 mg QD, mITT): 59.0%
participants with ≥50% reduction in mean MMDs across 12 weeks (60 mg QD, mITT): 41.0%
participants with ≥75% reduction in mean MMDs across 12 weeks (60 mg QD, mITT): 18.8%
Change from baseline in mean monthly migraine days across the 12-week treatment period, LS Mean [4]: -6.9 days
Change from baseline in mean monthly migraine days across the 12-week treatment period, LSMD Atogepant vs. Placebo [4]: -1.8 days
LSM change from baseline in mean MMDs across 12 weeks (60 mg QD): −7.5
mean change from baseline in MMDs (60 mg QD): -6.2 days
participants with <30% reduction in mean MMDs in month 1 who experienced ≥30% reduction in either month 2 or 3 (60 mg once daily): 45/108
participants with <30% reduction in mean MMDs in month 1 who experienced ≥30% reduction in month 2 (60 mg once daily): 31/113
participants with <50% reduction in mean MMDs in month 1 who experienced ≥50% reduction in either month 2 or 3 (60 mg once daily): 38/139
participants with <50% reduction in mean MMDs in month 1 who experienced ≥50% reduction in month 2 (60 mg once daily): 28/146
participants without ≥30% reduction in mean MMDs in months 1 or 2 who experienced a ≥30% response by the end of the trial (60 mg once daily): 17.1%
participants without ≥50% reduction in mean MMDs in months 1 or 2 who experienced a ≥50% response by the end of the trial (60 mg once daily): 8.2%
sustained response among participants with ≥75% response in month 1 (60 mg once daily, mITT): 52.5%
sustained response of ≥30% in months 2 and 3 among participants with ≥30% response in month 1 (60 mg once daily, mITT): 81.6%
sustained response of ≥50% in months 2 and 3 among participants with ≥50% response in month 1 (60 mg once daily, mITT): 74.2%
likelihood of having a migraine vs placebo (first full day after treatment initiation, atogepant-treated participants, P≤0.03): significantly less likely
participants with <30% reduction in mean MMDs in month 1 who experienced ≥30% reduction in either month 2 or 3 [5]: 41.7%-52.1%
participants with <30% reduction in mean MMDs in month 1 who experienced ≥30% reduction in month 2 [5]: 27.4%-36.4%
participants with <50% reduction in mean MMDs in month 1 who experienced ≥50% reduction in either month 2 or 3 [5]: 27.3%-39.4%
participants with <50% reduction in mean MMDs in month 1 who experienced ≥50% reduction in month 2 [5]: 19.2%-23.5%
